Test results reported in patent US20150359884A1, “MULTI-PHOTON ISOMERISATION OF COMBRETASTATINS AND THEIR USE IN THERAPY” (priority 2011, published 2015).

Tests used:
HeLa cells = experiment: Fluorescence lifetime imaging (FLIM) of uptake and intracellular concentration in HeLa cells
Procedure: Both HeLa and Chinese hamster ovary (CHO) cells were obtained from the European Collection of Cell Cultures. HeLa cells were cultured in MEM medium (Gibco) containing 10% foetal calf serum, penicillin (100 units/mL), streptomycin (100 μg/mL) and glutamine (2 mM). CHO cells were cultured in DMEM (Gibco) with the same additions as for the HeLa cells. For microscopy the adherent cell cultures were grown in 35 mm diameter glass-bottom culture dishes with optical quality glass (MatTek Corporation) and incubated at 37° C. in a humidified atmosphere containing 5% CO2. Human umbilical vein endothelial cells (HUVECs) were obtained from TCS Cellworks. HUVECs were sub-cultured in basal medium (TCS Cellworks) supplemented with antibiotic supplement/amphotericin-B, following the detailed guidelines provided by TCS Cellworks.
The fluorescence lifetime imaging system with multiphoton excitation employed lasers for multiphoton excitation consisting of a Ti:Sapphire laser, tuneable between 700 and 1000 nm and providing ca 180 fs pulses at 76 MHz, and an optical parametric oscillator (OPO) pumped by a second Ti:Sapphire laser source. Using the doubled idler output of the OPO, useful energies (>200 mW) could be obtained between 550 and 640 nm. Samples were excited on the stage of Nikon TE2000U inverted microscope using a water immersion ×60 objective of NA 1.2. Using the various microscope ports it was possible to record the fluorescence in a number of ways. The fluorescence signal at one port was relayed to a spectrometer (Acton 275) and CCD setup (Andor iDUS) so that emission spectra and intensities could be recorded. Alternatively the fluorescence signal could be routed via a second port to a time-correlated single photon counting (TCSPC) system (Becker and Hickl SPC-830) allowing fluorescence lifetime measurements and fluorescence lifetime imaging (FLIM), using Becker and Hickl software (SPCImage) for analysis. In FLIM mode the fluorescence was isolated by a suitable narrowband interference filter (400IU25 together with BG3 (Comar)). […] Two photon cross sections were determined using a reference fluorophore as a two photon standard as described by Mathai et al., employing published values of the two-photon cross section for 9-chloroanthracene.
Images of intracellular distribution of E-combretastatins in cell monolayers were obtained using fluorescence lifetime imaging, in which the rastered excitation laser beam dwells on each pixel for a few milliseconds and at each position records a nanosecond fluorescence lifetime decay curve using the time-correlated single photon counting method. […]
Quantification of fluorophore concentration from intensity measurements is often difficult.

[1] = Fluorescence lifetimes in solvents, two-photon excitation with TCSPC; format: physicochemical
Procedure: Fluorescence lifetimes were determined using 2PE at 630 nm with the microscope TCSPC setup (overall time response of 25 ps fwhm) and produced the results shown in Table 1. […] Characterisation of the spectroscopic properties of these latter two compounds remains to be investigated further. […] In the very viscous environment provided by glycerol the lifetime increases further to 1180 ps. In the range of alkanols studied the lifetime is closely correlated with solvent viscosity as shown in the inset to FIG. 3. […] However it is clear that the measured lifetime has the potential to report on cellular environments in FLIM studies. For E-CA4F similar trends are observed, but the overall differences in both lifetimes and quantum yields over the range of solvents are rather less than for E-CA4. The fluorescence lifetimes of E-CA4F are confined to a narrower range having values ranging from 440 ps in methanol through 740 ps in hexane to 1070 ps in glycerol. The more pronounced solvent dependence for E-CA4 no doubt reflects the more polar nature of the molecule compared with E-CA4F. The relative polarities may be judged from the partition coefficients (P) calculated according to the method of Brown et al..

[2] = Fluorescence quantum yields in solvents, UV one-photon excitation; format: physicochemical; conditions: 20° C., 290-300 nm excitation
Procedure: Absorption spectra were measured in either a Perkin Elmer Lambda 25 or 950 spectrophotometer. Fluorescence measurements were made with either a Spex Fluoromax or Varian Cary Eclipse spectrofluorimeter using the spectral correction curves supplied by the manufacturers. Fluorescence quantum yields with UV (one-photon) excitation were determined using either 2-aminopyridine (Φref 0.6 [7]) or 9-chloroanthracene (Φref 0.50 in dichloromethane, determined here relative to 9,10-diphenylanthracene in cyclohexane (Φref 0.97) and anthracene in ethanol (Φref 0.28 [8]) as standards. Fluorescence quantum yields were determined from the relative slopes of plots of integrated fluorescence intensity versus (1-10^−A) for samples having absorbance A≦0.1. The square of the refractive index (n^2) correction was applied when sample and reference compounds were in different solvents. Irradiation of the samples was minimized by the use of narrow excitation slits to reduce simultaneous photoisomerization.
The fluorescence quantum yields for E-CA4F were generally somewhat higher than for E-CA4.

[3] = tested on: human umbilical vein endothelial cells (HUVECs); experiment: Fluorescence lifetime imaging (FLIM) of uptake and intracellular concentration in HUVECs; format: cell-based
Text: (§1) Cell images were overlaid using Adobe Photoshop CS3.
Z-CA4 and analogues exert their anticancer activity by preventing the process of angiogenesis in which a growing tumour is supplied with new vasculature for the supply of nutrients via the bloodstream. We have therefore studied interactions between combretastatins and cultured HUVECs. […] Nevertheless it was possible to obtain images of cells after uptake upon E-combretastatin addition to the supporting medium at relatively low concentrations. […] In addition there are some punctate structures apparent in the images that appear to correlate with lipid droplets identified by Nile Red staining of the same cell. At 37° C. exact co-localization of the sequential images of combretastatin fluorescence and Nile Red labelled lipid droplets, obtained using the two different imaging systems attached to the microscope, is not possible because of the Brownian motion and the occasional rapid saltation of these structures that occur as a result of their transport upon the cellular microtubule network. The fluorescence lifetime distribution of intracellular E-CA4F observed in this cell simultaneously labelled with Nile Red peaks at ˜950 ps. […] This confirms that Nile Red and E-CA4F exist in the same space and are able to come close enough to allow FRET. The long lifetime of E-CA4F fluorescence in the HUVEC cell indicates a viscous environment for E-CA4F within the cell which is consistent with a lipidic location such as a membrane or lipid droplet. Since the fluorescence lifetimes and quantum yields of E-CA4F are directly related, it is possible to combine the FI and lifetime images to calculate the concentration distribution, using a series of standard solutions (DMSO was the chosen solvent with τ 810 ps). […] It is therefore clear that E-CA4F (and other compounds in FIG. 10) are taken up by their target endothelial cell and accumulated by up to 200 times the extracellular concentration of the compound. Similar images have been obtained that show corresponding uptake of E-CA4F within HUVECs from solutions containing as little as 1 μM E-CA4F.

[4] = Two-photon absorption cross section using reference fluorophore 9-chloroanthracene; format: physicochemical; conditions: at 620 nm, DCM
Text: as §1
Published cross sections for two photon absorption (σ2, the probability of an absorption process or photon interaction) typically show large variations depending on the method of measurement, using either the Z-scan method or a reference fluorophore, and the power range and pulse duration of the laser used for excitation. We have attempted to determine values of σ2 for E-CA4 and E-ACA4 using a reference fluorophore. 9-Chloroanthracene (9CIA) was selected as a standard fluorophore with an appropriate fluorescence spectrum and for which 2PE cross-sections are available. The values of σ2 at 620 nm for E-CA4 and E-CA4F in DCM were determined to be 2.1±0.5 and 2.75±0.6 GM units respectively. […] Values of σ2 at 620 nm for E-ACA and E-DMAC were both 5.7±1.2. These larger values may be consistent with some charge transfer character of the excitation of these compounds.

[5] = DMSO, 20° C., two-photon excitation 620-630 nm
[6] = HUVEC, 5 μM in medium, 37° C., 60 min
[7] = DCM, 20° C., two-photon excitation 620-630 nm, ne = non-exponential
[8] = EtOH, 20° C., two-photon excitation 620-630 nm, ne = non-exponential
[9] = Ethylene glycol, 20° C., two-photon excitation 620-630 nm, ne = non-exponential
[10] = Hexane, 20° C., two-photon excitation 620-630 nm
[11] = MeCN, 20° C., two-photon excitation 620-630 nm, ne = non-exponential
[12] = MeOH, 20° C., two-photon excitation 620-630 nm, ne = non-exponential

| SMILES | Fluorescence lifetime τ [1, 5] [ns] | Fluorescence quantum yield φ ([2]; DCM) | Two photon absorption cross section σ2 [4] [GM units] | Fluorescence lifetime τ [1, 7] | Fluorescence lifetime τ [1, 8] | Fluorescence lifetime τ [1, 9] | Fluorescence lifetime τ [1, 10] [ns] | Fluorescence lifetime τ [1, 11] | Fluorescence lifetime τ [1, 12] | also measured |
| --- | --- | --- | --- | --- | --- | --- | --- | --- | --- | --- |
| COc1cc(C=Cc2ccc(C#N)cc2)cc(OC)c1OC [E-CNCA4, 4-[2-(3,4,5-trimethoxyphenyl)vinyl]benzonitrile] | 0.71 | – | – | – | – | – | – | – | – | Intracellular distribution (HeLa cells): accumulates mainly within the cell cytoplasm and is excluded from the cell nucleus |
| COc1ccc(/C=C/c2cc(OC)c(OC)c(OC)c2)cc1F [E-CA4F, (E)-1-(3′,4′,5′-trimethoxyphenyl)-2-(3″-fluoro-4″-methoxyphenyl)ethene] | 0.81 | 0.23 | 2.75±0.6 | 0.61 ns | 0.48 ns | 0.76 ns | 0.75 | 0.59 ns | 0.44 ns | Fluorescence quantum yield φ ([2]; DMSO): 0.29; Fluorescence quantum yield φ ([2]; EtOH): 0.17; Fluorescence quantum yield φ ([2]; Ethylene glycol): 0.29; Fluorescence quantum yield φ ([2]; Glycerol): 0.42; Fluorescence quantum yield φ ([2]; Hexane): 0.31; Fluorescence quantum yield φ ([2]; MeCN): 0.2; Fluorescence quantum yield φ ([2]; MeOH): 0.15; Accumulation relative to the extracellular concentration ([3]; HUVEC endothelial cells): up to 200 times; Intracellular concentration in many parts of the cell [3, 6]: 500 µM; Intracellular concentration in the lipid droplets, peak [3, 6]: over 1 mM; Intracellular concentration as times that added to the surrounding medium ([3]; HUVEC, 5 μM in medium, many parts of the cell): 100 times; Intracellular distribution ([3]; HUVEC, 5 μM, 37° C., 60 min): taken up into the cytoplasmic region of the cell, but excluded from the cell nucleus; Fluorescence lifetime τ ([1]; DMSO standard solutions): 810 ps; Fluorescence lifetime τ ([1]; Glycerol, 20° C., two-photon excitation 620-630 nm, ne = non-exponential): 1.07 ns; Fluorescence lifetime ([1]; glycerol): 1070 ps; Fluorescence lifetime ([1]; hexane): 740 ps; Fluorescence lifetime ([1]; methanol): 440 ps |
| COc1cc(/C=C/c2ccc(N(C)C)cc2)cc(OC)c1OC [E-DMAC, (E)-1-(3′,4′,5′-Trimethoxyphenyl)-2-(4″-dimethylamino-phenyl)ethene] | 0.36 | 0.11 | 5.7±1.2 | ne | ne | ne | 0.41 | ne | ne | – |
